Residues, ends and D or L forms follow the SMILES beside them.
Experiments:
[1] = system: human first-trimester placental explants (CTB)
[2] = system: mouse placenta (maternofetal interface); format: in vivo, BALB/c mice; details: 200 μg, tail vein, cardiac perfusion
[3] = system: human placental explants (syncytiotrophoblast); test: Peptide-binding assay with human placental explants; format: cell-based; details: peptide 20 μM, 0 to 3 hours

## Cys-Arg-Gly-Asp-Lys-Gly-Pro-Asp-Cys (disulfide) [iRGD]
[1]
  basal rates of CTB proliferation (Ki67): did not alter
  rate of CTB apoptosis (M30): modestly reduced

## N=C(N)NCCC[C@H](NC(=O)[C@H](CCCCN)NC(=O)CNC(=O)[C@H](CS)NC(=O)c1ccc2c(c1)C(=O)OC21c2ccc(O)cc2Oc2cc(O)ccc21)C(=O)N[C@@H](CCCCN)C(=O)O [FAM-CGKRK] (HELM PEPTIDE1{[O=C1OC2(c3ccc(O)cc3Oc3cc(O)ccc32)c2ccc(C(=O)[*:2])cc21].C.G.K.R.K}$$$$V2.0)
[2]; pregnant mice, 3 hours, confocal microscopy (fig. S1)
  accumulation in maternal organs: do not accumulate in maternal organs of pregnant mice

## FAM-ARALPSQRSR [reference compound]
[3]
  binding to human placenta (first-trimester and term explants): did not bind to the syncytium of human placenta or to other cellular components
[2]; pregnant mice E11.5 to E17.5, 3 hours, fluorescence microscopy, n = 3 placentas from n = 4 mice
  binding at the murine maternofetal interface: did not target the maternofetal interface

## Cys-Gly-Lys-Arg-Lys [CGKRK]
[1]
  basal rates of CTB proliferation (Ki67): did not alter
